In patent EP4471028A1, “HYDRAZINO GROUP-CONTAINING COMPOUND” (priority 2022, dated 2023):

How the values were obtained:
[1] = In vitro liver microsomal metabolic stability; format: in vitro ADME; details: human, liver microsomes, pH 7.4; 0.5 mg/mL microsomes, NADPH, 37 °C, 60 min; read-out: Human liver microsome Residual rate at 60 min%
Description: Liver microsome incubation samples were prepared by mixing a PBS buffer (pH 7.4), a liver microsome solution (0.5 mg/mL; species: human, monkey, dog, rat, and mouse), a test compound, and an NADPH + MgCl2 solution and incubated at 37 °C and 300 rpm for 1 h. Zero-hour samples were prepared by mixing a PBS buffer (pH 7.4), a liver microsome solution (0.5 mg/mL), and a test compound. An acetonitrile solution containing an internal standard was added to the samples, and supernatants were prepared by protein precipitation, diluted, and then assayed by LC/MS/MS.

[2] = In vivo pharmacokinetics (Table 4); details: plasma; for bioavailability: po, IG 10mg/kg versus IV 1mg/kg, read-out: Absolute F; for clearance: IV, 1mg/kg, read-out: CLz (converted)

Work on Nn1c(=O)n(C2CCOCC2)c2c3cc(-c4ccc(OCCCN5CCCC5)nc4)c(F)cc3ncc21 [Example 5] yielded a remaining at 1 h [1] of 90.6%.
Compound Nn1c(=O)n(C2CC2)c2c3cc(-c4ccc(OCCCN5CCCCC5)nc4)c(F)cc3ncc21 [Example 18] has a bioavailability [2] of 75.9% and a clearance [2] of 26.7 mL/min/kg.
Compound Nn1c(=O)n(C2CCOCC2)c2c3cc(-c4ccc(OCCCN5CCCCC5)nc4)c(F)cc3ncc21 [Example 15] has a remaining at 1 h [1] of 58.4%.
For COc1cc2ncc3c(c2cc1-c1ccc(OCCCN2CCCC2)nc1)n(C(C)C)c(=O)n3N [Example 17], the remaining at 1 h [1] was 85.2%.
In the case of CC(C)n1c(=O)n(N)c2cnc3cc(F)c(-c4ccc(OCCCN5CCCCC5)nc4)cc3c21 [Example 2], the remaining at 1 h [1] was 64.4%, the bioavailability [2] was 79.7% and the clearance [2] was 31 mL/min/kg.
COC1CCC(n2c(=O)n(N)c3cnc4cc(F)c(-c5ccc(OCCCN6CCCC6)nc5)cc4c32)C1 (centres unmarked) [Example 13] gave a remaining at 1 h [1] of 56%.
With CC(C)n1c(=O)n(N)c2nnc3cc(F)c(-c4ccc(OCCCN5CCCCC5)nc4)cc3c21 [Example 32] the remaining at 1 h [1] was 95.8%.
In the case of CC(C)n1c(=O)n(N)c2cnc3cc(F)c(-c4ccc(OCC5CC(N6CCCC6)C5)nc4)cc3c21 (centres unmarked) [Example 22], the remaining at 1 h [1] was 73.3%.
For COC1CC(n2c(=O)n(N)c3cnc4cc(F)c(-c5ccc(OCCCN(C)C)nc5)cc4c32)C1 (centres unmarked) [Example 21], the remaining at 1 h [1] was 79.6%.
CC(C)n1c(=O)n(N)c2cnc3cc(F)c(-c4ccc(OCCCN5CCCC5)nc4)cc3c21 [Example 3] showed a remaining at 1 h [1] of 86.3%, a bioavailability [2] of 95.5% and a clearance [2] of 36.3 mL/min/kg.
With CC(C)n1c(=O)n(N)c2cnc3cc(F)c(-c4ccc(OCCCN5CC(CF)C5)nc4)cc3c21 [Example 28] the remaining at 1 h [1] was 65.6%, the bioavailability [2] was 77.4% and the clearance [2] was 7.45 mL/min/kg.
COc1cc2ncc3c(c2cc1-c1ccc(OCCCN2CCCCC2)nc1)n(C(C)C)c(=O)n3N [Example 16] showed a remaining at 1 h [1] of 72.4%.
Work on COC1CCC(n2c(=O)n(N)c3cnc4cc(F)c(-c5ccc(OCCCN(C)C)nc5)cc4c32)C1 (centres unmarked) [Example 14] yielded a remaining at 1 h [1] of 66.2%.
For Nn1c(=O)n(C2CC2)c2c3cc(-c4ccc(OCCCN5CCCC5)nc4)c(F)cc3ncc21 [Example 19], the remaining at 1 h [1] was 77%, the bioavailability [2] was 88.3% and the clearance [2] was 35.2 mL/min/kg.
For CC(C)n1c(=O)n(N)c2cnc3cc(F)c(-c4ccc(OCCCN5CC6(CCC6)C5)nc4)cc3c21 [Example 29], the remaining at 1 h [1] was 64.9%, the bioavailability [2] was 85.9% and the clearance [2] was 5.27 mL/min/kg.
COc1cc2ncc3c(c2cc1-c1ccc(OCCCN2CCCC2)nc1)n(C1CC1)c(=O)n3N [Example 11] gave a remaining at 1 h [1] of 58.6%.
Compound CC(C)n1c(=O)n(N)c2cnc3cc(F)c(-c4ccc(OCCCN5C6CCC5CC6)nc4)cc3c21 [Example 27] has a bioavailability [2] of 115% and a clearance [2] of 59.7 mL/min/kg.
